The record followed here is ChEMBL document CHEMBL1201862, “PubChem BioAssay data set” (2004).

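48-hour exposure; five concentrations; linearly interpolated endpoints. GI50 = concentration required for 50% inhibition of growth.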 Activity calls are given as the source filed them. Cut-off read from the data, not from the text of the source: active = GI50 up to about 1.1 µM and inactive = higher.

Test systems include K562; SF-539; NCI-H460; SNB-75; MCF7; UACC-62; HOP-62; SK-MEL-5; TK-10; SNB-19; HOP-92; RPMI-8226; Malme-3M; NCI-H226; DU-145; SK-MEL-2; HCT-15; HT-29; SK-MEL-28.
What all share (experiment): NCI anticancer screen, dose series, 48 h

As to `Oc1ccc(Nc2nc(Cl)c3nc[nH]c3n2)cc1`, the GI50 is 50.8 µM (inactive) in the experiment on K562; > 100 µM (inactive) in the experiment on SF-539; > 100 µM (inactive) in the experiment with NCI-H460; > 100 µM (inactive) in the experiment with SNB-75; > 100 µM (inactive) with MCF7; > 100 µM (inactive) with UACC-62. Moreover, the GI50 is > 100 µM (inactive) with HOP-62; > 100 µM (inactive) in the experiment with SK-MEL-5; > 100 µM (inactive) with TK-10; > 100 µM (inactive) with SNB-19; 14 µM (inactive) in the experiment on HOP-92; 61.4 µM (inactive) in the experiment with RPMI-8226. In addition, the GI50 was > 100 µM (inactive) in the experiment on Malme-3M; > 100 µM (inactive) in the experiment on NCI-H226; > 100 µM (inactive) in the experiment with DU-145; 27.2 µM (inactive) in the experiment with SK-MEL-2; greater than 100 µM in the experiment with HCT-15; > 100 µM (inactive) in the experiment on HT-29.
As to `Cc1ncc([N+](=O)[O-])n1CCNC(=O)CCC(=O)NCCCn1ccnc1[N+](=O)[O-]`, the GI50 with K562, with SF-539, in the experiment with NCI-H460, in the experiment on SNB-75, in the experiment on MCF7 and in the experiment on UACC-62 was > 100 µM (inactive) throughout. The GI50 with HOP-62 was > 100 µM (inactive); in the experiment with SK-MEL-5 it was > 100 µM (inactive); with TK-10, > 100 µM (inactive); in the experiment with HOP-92, 54 µM (inactive); with RPMI-8226, > 100 µM (inactive); with Malme-3M, > 100 µM (inactive). Further, the GI50 with NCI-H226 was > 100 µM (inactive); with DU-145 it was > 100 µM (inactive); in the experiment on SK-MEL-2, > 100 µM (inactive); with SK-MEL-28, > 100 µM (inactive); in the experiment on HCT-15 it was greater than 100 µM; with HT-29, > 100 µM (inactive).
Regarding `O=C1CN2C(c3ccccc3)=NN(c3ccc([N+](=O)[O-])cc3)C2(c2ccccc2)c2cc(Cl)ccc2N1CC1CC1` (configuration not stated), the GI50 with K562, with SF-539, in the experiment on NCI-H460, with SNB-75, with MCF7 and in the experiment with UACC-62 was > 100 µM (inactive) each time. Further, the GI50 in the experiment on HOP-62 was > 100 µM (inactive); with SK-MEL-5, > 100 µM (inactive); in the experiment on TK-10, > 100 µM (inactive); with SNB-19 it was > 100 µM (inactive); with HOP-92, > 100 µM (inactive); with RPMI-8226, 29 µM (inactive). Further, the GI50 was > 100 µM (inactive) in the experiment with Malme-3M; > 100 µM (inactive) in the experiment with NCI-H226; > 100 µM (inactive) with DU-145; > 100 µM (inactive) with SK-MEL-28; greater than 100 µM in the experiment with HCT-15; > 100 µM (inactive) in the experiment with HT-29.
Turning to `COc1cc(/C=C2\C[C@H]3[C@@H]4CC=C5C=C(N6CCCC6)CC[C@]5(C)[C@H]4CC[C@]3(C)C2=O)cc(OC)c1OC`, the GI50 with K562 is 3.42 µM (inactive); with SF-539, 3.5 µM (inactive); in the experiment with SNB-75 it was 4.51 µM (inactive); in the experiment on MCF7, 3.22 µM (inactive); in the experiment with UACC-62, 2.13 µM (inactive); with HOP-62, 2.48 µM (inactive). Besides, the GI50 in the experiment on SK-MEL-5 was 2.76 µM (inactive); in the experiment with TK-10 it was 6.49 µM (inactive); in the experiment with SNB-19, 3.73 µM (inactive); in the experiment on HOP-92, 2.21 µM (inactive); in the experiment with RPMI-8226 it was 2.53 µM (inactive); in the experiment on Malme-3M it was 2.01 µM (inactive). In addition, the GI50 was 13.6 µM (inactive) with NCI-H226; 3.44 µM (inactive) with DU-145; 3.18 µM (inactive) in the experiment on SK-MEL-2; 4.55 µM (inactive) with SK-MEL-28; 2.23 µM with HCT-15; 2.95 µM (inactive) in the experiment with HT-29.
On to `Cc1ccc(/C=N/Nc2cc(C)c3ccccc3n2)s1`, for which the GI50 with K562 is 7 µM (inactive); with SF-539, 21.3 µM (inactive); with SNB-75, 31.6 µM (inactive); with MCF7, 12 µM (inactive); with UACC-62, 23.4 µM (inactive); in the experiment with HOP-62, 15.7 µM (inactive). Moreover, the GI50 in the experiment with SK-MEL-5 is 8.3 µM (inactive); with TK-10, 30.8 µM (inactive); in the experiment on SNB-19, 41.6 µM (inactive); with HOP-92, 27.2 µM (inactive); in the experiment on RPMI-8226 it was 3.91 µM (inactive); with Malme-3M it was 5.75 µM (inactive). Moreover, the GI50 with NCI-H226 is 14 µM (inactive); with DU-145 it was > 10 µM (inactive); in the experiment on SK-MEL-2 it was 34.1 µM (inactive); in the experiment with SK-MEL-28 it was 20.3 µM (inactive); in the experiment with HCT-15, 7.36 µM; in the experiment on HT-29, 3.85 µM (inactive).
For `O=C1CC(=O)NC(NN2C(=O)CSC2c2ccc(Cl)cc2)=N1` (configuration not stated), the GI50 is > 100 µM (inactive) in the experiment on K562; > 100 µM (inactive) in the experiment on SF-539; 51.3 µM (inactive) in the experiment with NCI-H460; > 100 µM (inactive) with SNB-75; 61.1 µM (inactive) with MCF7; 21.8 µM (inactive) in the experiment with UACC-62. In addition, the GI50 with HOP-62 was 24.9 µM (inactive); in the experiment with SK-MEL-5 it was > 100 µM (inactive); in the experiment on TK-10, > 100 µM (inactive); in the experiment on HOP-92, > 100 µM (inactive); in the experiment on RPMI-8226 it was > 100 µM (inactive); in the experiment with Malme-3M, 65.8 µM (inactive). Besides, the GI50 in the experiment on NCI-H226 was > 100 µM (inactive); with DU-145, > 100 µM (inactive); in the experiment on SK-MEL-2 it was > 100 µM (inactive); in the experiment with SK-MEL-28, > 100 µM (inactive); in the experiment on HCT-15 it was greater than 100 µM; in the experiment with HT-29, 34.1 µM (inactive).
In the case of `CC(NC1=NCCO1)c1ccsc1` (configuration not stated), the GI50 is 21.4 µM (inactive) in the experiment on K562; 16.2 µM (inactive) with SF-539; 10.9 µM (inactive) in the experiment with NCI-H460; 13.2 µM (inactive) in the experiment with SNB-75; 34.8 µM (inactive) with MCF7; 17.6 µM (inactive) with UACC-62. The GI50 in the experiment on SK-MEL-5 was 20 µM (inactive); with TK-10 it was 65.5 µM (inactive); with SNB-19, 37.3 µM (inactive); in the experiment on HOP-92 it was 23.6 µM (inactive); in the experiment with RPMI-8226, 7.52 µM (inactive); in the experiment on Malme-3M it was 21 µM (inactive). Further, the GI50 was 58.1 µM (inactive) with NCI-H226; 43.1 µM (inactive) in the experiment on DU-145; 21.9 µM (inactive) in the experiment with SK-MEL-2; 19 µM (inactive) with SK-MEL-28; 40.7 µM in the experiment on HCT-15; 15.2 µM (inactive) in the experiment with HT-29.
Take `Cn1c2c(c3ccccc31)CC(=S)N1CCCC(CC2O)C1` (configuration not stated): the GI50 in the experiment on K562 was > 100 µM (inactive); with SF-539, > 100 µM (inactive); in the experiment with NCI-H460 it was > 100 µM (inactive); with SNB-75 it was > 100 µM (inactive); in the experiment on MCF7, > 100 µM (inactive); in the experiment with UACC-62, 91.2 µM (inactive). Also, the GI50 in the experiment with SK-MEL-5, in the experiment on TK-10, in the experiment on SNB-19, in the experiment with HOP-92, with RPMI-8226 and in the experiment with Malme-3M was > 100 µM (inactive) in each case. In addition, the GI50 was > 100 µM (inactive) with NCI-H226; > 100 µM (inactive) with DU-145; > 100 µM (inactive) in the experiment with SK-MEL-2; > 100 µM (inactive) with SK-MEL-28; greater than 100 µM in the experiment on HCT-15; > 100 µM (inactive) with HT-29.
As to `O=c1[nH]/c(=C/c2ccc(OCc3ccccc3)cn2)c(=O)[nH]/c1=C/c1ccc(F)cc1`, the GI50 is 0.154 µM (active) in the experiment on K562; 0.923 µM (active) in the experiment on SF-539; 0.541 µM (active) in the experiment on NCI-H460; 0.409 µM (active) in the experiment with SNB-75; 0.301 µM (active) with MCF7; 0.938 µM (active) with UACC-62. Besides, the GI50 is 0.239 µM (active) in the experiment with HOP-62; 0.366 µM (active) with SK-MEL-5; 4.36 µM (inactive) in the experiment with TK-10; 2.3 µM (inactive) in the experiment with SNB-19; 0.586 µM (active) with HOP-92; 0.194 µM (active) with RPMI-8226. In addition, the GI50 is 0.759 µM (active) in the experiment with Malme-3M; 2.22 µM (inactive) with NCI-H226; 0.931 µM (active) with DU-145; 7.35 µM (inactive) with SK-MEL-2; 0.157 µM in the experiment on HCT-15; 0.434 µM (active) in the experiment on HT-29.
For the molecule `CCOc1ccc2nc(NC(=O)/C(CC(=O)CC(C3=C(O)c4ccccc4CC3=O)c3ccccc3)=N\O)sc2c1` (configuration not stated), the GI50 in the experiment with K562 is > 100 µM (inactive); with SF-539, > 100 µM (inactive); in the experiment on NCI-H460, > 100 µM (inactive); in the experiment with SNB-75 it was 52.1 µM (inactive); with MCF7, > 100 µM (inactive); in the experiment with UACC-62, > 100 µM (inactive). The GI50 in the experiment with SK-MEL-5, in the experiment on SNB-19, in the experiment with HOP-92, in the experiment on RPMI-8226, in the experiment on Malme-3M and in the experiment on NCI-H226 was > 100 µM (inactive) throughout. The GI50 in the experiment with DU-145 was > 100 µM (inactive); in the experiment on SK-MEL-2, > 100 µM (inactive); in the experiment with SK-MEL-28 it was > 100 µM (inactive); with HCT-15 it was greater than 100 µM; with HT-29, > 100 µM (inactive).
For the molecule `COc1ccc(C)cc1Nc1nnc(-c2ccc(N)cc2)s1`, the GI50 was 35.8 µM (inactive) in the experiment with K562; > 100 µM (inactive) in the experiment with SF-539; 61.8 µM (inactive) in the experiment with NCI-H460; > 100 µM (inactive) in the experiment with SNB-75; 46.3 µM (inactive) with MCF7; > 100 µM (inactive) with UACC-62. Moreover, the GI50 in the experiment on HOP-62 was 51.8 µM (inactive); in the experiment on SK-MEL-5, 24.5 µM (inactive); in the experiment on SNB-19, > 100 µM (inactive); with HOP-92 it was > 100 µM (inactive); with RPMI-8226, 31.5 µM (inactive); in the experiment with Malme-3M, > 100 µM (inactive). Further, the GI50 in the experiment on NCI-H226 was 44.9 µM (inactive); in the experiment on DU-145, > 100 µM (inactive); with SK-MEL-2, 63.1 µM (inactive); with SK-MEL-28, > 100 µM (inactive); in the experiment with HCT-15, 69.2 µM; in the experiment with HT-29, 48.3 µM (inactive).
